Laboratory results as given in patent US20250368700A1, “NOVEL PEPTIDE FOR TREATING AN INFECTIOUS DISEASE OR CONDITION” (OMNIX MEDICAL LTD., priority 2022, published 2025).
In brackets after ≈: the same amount, converted by molar mass. Read-outs that look alike come from different tables or passages of the source. Where a SMILES comes first, the peptide text is derived from it. Where no end group is shown, it is not given here. [ ]: non-standard residue; d: D form.

Tests used:
[1] = tested on: Pseudomonas aeruginosa ATCC ® BAA-2797 (MDR); format: cell-based
Source text: (§1) As bacterial growth progresses, OD625 nm values raised.

[2] = tested on: Klebsiella pneumoniae ATCC ® BAA-2146 (NDM-1); format: cell-based
Source text: as §1

[3] = tested on: Klebsiella pneumoniae ATCC ® 700603 (Sens.); format: cell-based
Source text: as §1

[4] = tested on: Escherichia coli ATCC ® 25922 (Sens.); format: cell-based
Source text: as §1

[5] = tested on: Pseudomonas aeruginosa ATCC ® BAA-2795 (MDR); format: cell-based
Source text: as §1

[6] = tested on: Escherichia coli ATCC ® BAA-3048 (MDR); format: cell-based
Source text: as §1

[7] = tested on: Escherichia coli ATCC ® BAA-2452 (NDM-1); format: cell-based
Source text: as §1

[8] = tested on: Pseudomonas aeruginosa ATCC ® 27853 (Sens.); format: cell-based
Source text: as §1

[9] = tested on: K. pneumoniae strain ATCC® 43816; format: cell-based
[10] = tested on: K. pneumoniae strain ATCC® 43816; assay: Mouse lung infection model induced by K. pneumoniae, lung bacterial burden; format: in vivo; settings: neutropenic CD-1 female mice, 100 mg/kg intranasal two hours post-infection, 24 hours
Method: Neutropenic CD-1 female mice were intratracheally inoculated with K. pneumoniae strain ATCC 43816 (75×10^3 CFU/mouse). Two hours post-inoculation, OMN71-treated group was administered by an intranasal injection of 100 mg/kg and the vehicle group was administered with 0.9% saline solution. Bacterial burden in the lungs was evaluated 24 hours post-infection. Control group of untreated mice n=2 (CTRL ▪), vehicle saline treated mice n=3 (vehicle ●), OMN71-treated group at 100 mg/kg n=3 (OMN71 100 mg/kg ▴).
Methods: Female CD-1 mice, weighing between 20-25 g were inoculated with K. pneumoniae bacteria to induce a lung infection. All animals were monitored during the entire period of the study and clinical signs were recorded. Briefly, eight animals were rendered neutropenic by two intraperitoneal injections of cyclophosphamide (Sigma-Aldrich, Italy) at 150 and 100 mg/kg, four and one day before the infection, respectively. […] The mice were anesthetized by IP injection of Ketamine-Xylazine at low dose and intratracheally inoculated with 50 μL of the bacterial suspension (75×10^3 CFU/mouse). Two hours post-infection (T2h), 100 mg/kg OMN71 in a total volume of 50 μl saline (0.9% NaCl) was administered intranasal. […] The mice were monitored during the entire study and scored for clinical signs of infection where no mortality or morbidity were observed.

Hsd:ICR (CD-1) mice = assay: Safety of intra-nasal (IN) administration in mice (histopathology, mortality); format: in vivo; set-up: key to histopathological findings grade, Spleen / histopathological findings grade, Lungs / histopathological findings grade, Kidneys / histopathological findings grade, Heart / histopathological findings grade, Liver: Grade 0—The tissue appears normal, without any changes at all; Grade 1—Minimal pathological findings; Grade 2—Mild pathological findings; Grade 3—Moderate pathological findings; Grade 4—Severe pathological findings; settings: 100 mg/kg IN
Method: Methods: Adverse effects of OMN71 on mice following intra-Nasal (IN) administration, safety was evaluated by tissue histopathology and mortality. 100 mg/kg of OMN71 in a total volume of 50 μl saline (0.9% NaCl) was administered intranasal (IN) to Hsd:ICR (CD-1) mice (20-25 g) in order to assess the presence any toxic effects. Control mice were administered with saline solution (0.9% NaCl) as vehicle. On the last time-point of each experiment (at T24h), mortality was assessed, the mice were sacrificed by IP injection of Ketamine-Xylazine and spleen, lungs, kidneys, heart and liver were collected for histopathology.
Slides of liver, heart, kidneys, lungs, and spleen were stained with Hematoxylin & Eosin (H&E) and were sent for evaluation. The H&E-stained slides were examined and pictures were taken using microscope equipped with a camera at objective magnification of ×4 and ×10.

Proteinase-K (ProtK) = Proteinase-K (ProtK) (Parengyodontium album, UniProt P06873); format: in vitro ADME; settings: 2.5 μg protein, 2 hours at 37° C.
Method: Methods: Proteinase-K (ProtK) was used to assess the stability of OMN71 versus native OMN70 and Bovine Serum Albumin (BSA). 2.5 μg of each protein were incubated with increasing concentrations of 2.5 and 20 ng of ProtK as specified, for 2 hours at 37° C. Samples were boiled at 100° C. for five minutes and separated on 16.5% polyacrylamide gel. The gel was then stained with Coomassie Blue and excess dye was removed overnight.
Results: FIGS. 3A and 3B depict a Coomassie Blue stained gel detecting the following: FIG. 3A: Lanes 1, 2 and 3: […] of OMN70 subjected to 0/2.5/20 ng of Proteinase-K (ProtK), respectively. Lanes 4, 5 and 6: […] of OMN71 subjected to 0/2.5/20 ng of ProtK, respectively. FIG. 3B: Lanes 7, 8 and 9: […] of Bovine Serum Albumin (BSA) subjected to 0/2.5/20 ng of ProtK, respectively.

Proteinase-K (ProtK), sequence (P06873 106-384, species assumed): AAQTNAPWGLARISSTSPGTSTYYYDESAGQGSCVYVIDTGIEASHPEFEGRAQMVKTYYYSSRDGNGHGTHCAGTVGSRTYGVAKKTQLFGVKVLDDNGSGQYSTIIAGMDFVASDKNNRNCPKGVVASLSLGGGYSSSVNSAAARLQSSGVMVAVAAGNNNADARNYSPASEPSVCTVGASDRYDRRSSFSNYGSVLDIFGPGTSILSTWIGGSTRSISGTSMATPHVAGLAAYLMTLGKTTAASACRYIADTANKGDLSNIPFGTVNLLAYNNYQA

CC(C)C[C@@H](NC(=O)[C@H](N)Cc1ccccc1)C(=O)N[C@H](CC(N)=O)C(=O)N[C@H](C)C(=O)N[C@H](CC(C)C)C(=O)N[C@H](CCCCN)C(=O)N[C@H](CC(N)=O)C(=O)N[C@H](Cc1ccccc1)C(=O)N[C@H](C)C(=O)N[C@H](CCCCN)C(=O)N[C@@H](C(=O)N[C@H](C)C(=O)NCC(=O)N[C@H](CCCCN)C(=O)N[C@H](CCCNC(=N)N)C(=O)N[C@H](CC(C)C)C(=O)N[C@H](CCCCN)C(=O)N[C@H](CO)C(=O)N[C@H](CC(C)C)C(=O)N[C@H](CC(C)C)C(=O)N[C@H](CC(N)=O)C(N)=O)[C@H](C)O [OMN71] (H-[dF][dL][dN][dA][dL][dK][dN][dF][dA][dK][dT][dA]G[dK][dR][dL][dK][dS][dL][dL][dN]-NH2; N-terminus assumed)
MIC values [1]: 16 µg/mL (≈ 6.82 µM) | MIC values [2]: 16 µg/mL (≈ 6.82 µM) | MIC values [3]: 8 µg/mL (≈ 3.41 µM) | MIC values [4]: 4 µg/mL (≈ 1.7 µM) | MIC values [5]: 4 µg/mL (≈ 1.7 µM) | MIC values [6]: 4 µg/mL (≈ 1.7 µM) | MIC values [7]: 4 µg/mL (≈ 1.7 µM) | MIC values [8]: 16 µg/mL (≈ 6.82 µM) | MIC [9]: 4 µg/mL (≈ 1.7 µM) | bacterial burden reduction compared to the vehicle-treated group [10]: ~1 log CFU/lungs | histopathological findings grade, Heart (Hsd:ICR (CD-1) mice; T24 h): 0 | histopathological findings grade, Kidneys (Hsd:ICR (CD-1) mice; T24 h): 0 | histopathological findings grade, Liver (Hsd:ICR (CD-1) mice; T24 h): 0 | histopathological findings grade, Lungs (Hsd:ICR (CD-1) mice; T24 h): 0 | histopathological findings grade, Spleen (Hsd:ICR (CD-1) mice; T24 h): 0 | mortality (Hsd:ICR (CD-1) mice; at T24h): No mortality | mortality or other adverse effects (Hsd:ICR (CD-1) mice; monitored for an additional week): no mortality or any other adverse effects

CC(C)C[C@@H](NC(=O)[C@H](N)CC(N)=O)C(=O)N[C@H](CC(C)C)C(=O)N[C@H](CO)C(=O)N[C@H](CCCCN)C(=O)N[C@H](CC(C)C)C(=O)N[C@H](CCCNC(=N)N)C(=O)N[C@H](CCCCN)C(=O)NCC(=O)N[C@H](C)C(=O)N[C@@H](C(=O)N[C@H](CCCCN)C(=O)N[C@H](C)C(=O)N[C@H](Cc1ccccc1)C(=O)N[C@H](CC(N)=O)C(=O)N[C@H](CCCCN)C(=O)N[C@H](CC(C)C)C(=O)N[C@H](C)C(=O)N[C@H](CC(N)=O)C(=O)N[C@H](CC(C)C)C(=O)N[C@H](Cc1ccccc1)C(N)=O)[C@H](C)O [OMN72]
MIC values [1]: 64 µg/mL (≈ 27.3 µM) | MIC values [2]: 32 µg/mL (≈ 13.6 µM) | MIC values [3]: 16 µg/mL (≈ 6.82 µM) | MIC values [4]: 32 µg/mL (≈ 13.6 µM) | MIC values [5]: 16 µg/mL (≈ 6.82 µM) | MIC values [6]: 32 µg/mL (≈ 13.6 µM) | MIC values [7]: 32 µg/mL (≈ 13.6 µM) | MIC values [8]: 64 µg/mL (≈ 27.3 µM)

Bovine Serum Albumin [BSA]
degradation by ProtK (gel band) (Proteinase-K (ProtK); 2.5 ng ProtK): partially degrade | degradation by ProtK (gel band) (Proteinase-K (ProtK); 20 ng ProtK): completely degrade

FLNALKNFAKTAGKRLKSLLN-NH2 [OMN70, Cyanophlyctin, reference compound]
MIC values [1]: 16 µg/mL | MIC values [2]: 16 µg/mL | MIC values [3]: 8 µg/mL | MIC values [4]: 4 µg/mL | MIC values [5]: 8 µg/mL | MIC values [6]: 16 µg/mL | MIC values [7]: 8 µg/mL | MIC values [8]: 16 µg/mL
